Test results: patent US20240226228A1, “ANTIMICROBIAL PEPTOID HAVING IMPROVED SELECTIVITY AND ANTIMICROBIAL COMPOSITION COMPRISING SAME” (priority 2021, published 2024)
In brackets after ≈: the same amount, converted by molar mass. Read-outs that look alike come from different tables or passages of the source. Where a SMILES comes first, the peptide text is derived from it. [ ]: non-standard residue; d: D form. Gly(N(CH2)2(3-indolyl)) = O=C(O)CNCCc1c[nH]c2ccccc12; Nspe = C[C@H](NCC(=O)O)c1ccccc1; Nlys = NCCCCNCC(=O)O

Key:
[1] = in vitro
Description: (§1) Human lung cells (MRC-5) were purchased from the Korean Cell Line Bank, and human keratinocytes (HaCaT) were purchased from the AmorePacific R&D Center. All cells were grown in a Dulbecco's modified Eagle's medium containing 10% fetal bovine serum under conditions of 5% CO2 and 37° C. To confirm the effect of a peptoid on cell growth, 3-(4,5-dimethylthiazol-2-yl)-5-(3-carboxymethoxyphenyl)-2-(4-sulfophenyl)-2H-tetrazolium (MTS) cell assay was performed to determine cell viability. An aliquot (100 μL) of a batch including 1.3×10^4 MRC-5 cells/mL or 3×10^4 HaCaT cells/mL was dispensed into each well of a 96-well plate. The cells were grown at 37° C. in a 5% CO2 humid atmosphere and allowed to adhere for 24 hours. When the cells reached approximately 70% confluency, the medium was replaced with serial dilutions of the peptoid stock and incubated for 24 hours. 20 μL of a CellTiter 96 aqueous non-radioactive cell proliferation assay reagent (Promega, USA) including a tetrazolium compound was added to each well.
(§2) The contents in the plate were metabolized by incubating at 37° C. for 4 hours. An MTS-formazan product of viable cells was measured at 490 nm using a microplate reader, and cell viability (%) was calculated by Equation 2 below and compared with untreated cells.
(§3) Cell viability (%)=[A/(Acontrol)]×100 [Equation 2]
(§4) In Equation 2, A is the absorbance of a test well, and Acontrol is the average absorbance of a well containing untreated cells.
(§5) The term “nd” shown in Table 19 below is the abbreviation for not determined, and indicates a value that is too small or too large to be measured.

[2] = system: P. aeruginosa KCTC 1637; experiment: MIC in multidrug-resistant bacteria, modified microdilution method; format: cell-based; conditions: Table 14
Description: (§6) The MIC of the prepared peptoid in multidrug-resistant bacteria was measured using a modified microdilution method in a Difco Mueller Hinton medium, and a test was performed on a bacterial pathogen panel with resistant and tolerance to general antibiotics.
(§7) Briefly, a medium containing bovine serum albumin and 0.001% acetic acid was used to continuously dilute a peptoid concentrate 10-times stronger than the final concentration. 10 uμL of the 10-time stronger peptoid concentrate and 90 μL of a Muleller Hinton medium were added to each well of a 96-well plate. Bacteria were added to the plate until the final concentration reached 2×10^5 CFU/mL and then incubated at […] overnight. MIC was defined as a concentration at which bacterial growth is not observed.

[3] = system: Enterococcus Faecium KCTC 13225; experiment: as above; format: cell-based; conditions: Table 14
Description: as §6, §7

[4] = system: Enterococcus faecalis KCTC 3511; experiment: as above; format: cell-based; conditions: Table 14
Description: as §6, §7

[5] = system: E. coli KCTC 2411; experiment: as above; format: cell-based; conditions: Table 14
Description: as §6, §7

[6] = system: Enterobacter SP KCTC 2625; experiment: as above; format: cell-based; conditions: Table 14
Description: as §6, §7

[7] = system: red blood cells; experiment: Hemolysis assay; format: cell-based, Sprague-Dawley mouse
How it was run: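 Peptoid is mixed with 10% (v/v) PBS-washed erythrocytes (male Sprague-Dawley […], 13 weeks) and held 1 h at 37 °C. Hemolysis is calculated from 540 nm absorbance of the supernatant, with PBS as 0% and Triton X-100 as 100%.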

[8] = system: S. aureus ATCC 25923
How it was run: (§8)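 Cation-adjusted MHB2 cultures (18 h, subcultured 4 h) adjusted to 2×10^5–5×10^5 CFU/mL in medium with 0.02% BSA and 0.001% acetic acid.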

[9] = system: E. coli ATCC25922
How it was run: as §8

[10] = HPLC to confirm peptoid decomposition after counter ion substitution; format: physicochemical; conditions: HPLC at 220 nm; HCl and AcOH
Description: FIGS. 76 to 83 are the HPLC results for Peptoids 1, 10, 11, 14, 15, 29, 32 and 37 of the present inventive concept to confirm the decomposition of the peptoids after counter ion substitution using (a) HCl and (b) AcOH.
Referring to FIGS. […], HPLC was performed for Peptoids 1, 10, 11, 14, 15, 29, 32 and 37 of the present inventive concept. Since the chloride (HCl) is a stronger acid than TFA, it can decompose acid-vulnerable peptoid compounds.

[11] = system: Human lung cells (MRC-5); experiment: in vitro
Description: as §1, §2, §3, §4, §5

[12] = system: human keratinocytes (HaCaT); experiment: in vitro
Description: as §1, §2, §3, §4, §5

[13] = Table 18, TFA salt vs counter ion-substituted peptoids
[14] = Tables 11-13, concentration that induces hemolysis in 10% red blood cells
[15] = Tables 11-13, concentration that induces hemolysis in 50% red blood cells
[16] = Table 18, TFA salt vs counter ion-substituted (HCl, AcOH) peptoids
[17] = Tables 11-13, 24 hours at 37° C., maximum concentration 25 μM

Row | Compound | MIC P. aeruginosa KCTC 1637 [2] [µM] | MIC Enterococcus Faecium KCTC 13225 [3] [µM] | MIC Enterococcus faecalis KCTC 3511 [4] [µM] | MIC E. coli KCTC 2411 [5] [µM] | MIC Enterobacter SP KCTC 2625 [6] [µM] | HC10 [7, 14] [µM] | HC50 [7, 15] [µM] | MIC S. aureus ATCC 25923 [8, 16] [µM] | MIC S. aureus ATCC 25923 [8, 17] [µM] | MIC E. coli ATCC25922 [9, 16] [µM] | MIC E. coli ATCC25922 [9, 17] [µM] | peptoid decomposition after counter ion substitution (in words) [10] | CC50 at 24 h ([1]; human, LC50 MRC-5) [µM] | HC10 [7] [µM] | HC50 [7] [µM] | lower toxicity against MRC-5 cells compared to the peptoid having a TFA salt [11] [%] | lower toxicity against HaCaT cells compared to the peptoid having a TFA salt [12] [%] | CC50 at 24 h ([1]; human, LC50 HaCaT) [µM] | also measured
1 | C[C@@H](c1ccccc1)N(CC(N)=O)C(=O)CN(C(=O)CN(CCCCN)C(=O)CN(C(=O)CN(C(=O)CN(CCCCN)C(=O)CN(C(=O)CN(C(=O)CN(CCCCN)C(=O)CN(C(=O)CN(C(=O)CNCCCCN)[C@@H](C)c1ccccc1)[C@@H](C)c1ccccc1)[C@@H](C)c1ccccc1)[C@@H](C)c1ccccc1)[C@@H](C)c1ccccc1)[C@@H](C)c1ccccc1)[C@@H](C)c1ccccc1 [Peptoid 1, H-NLys-Nspe-Nspe-NLys-Nspe-Nspe-NLys-Nspe-Nspe-NLys-Nspe-Nspe-NH2, reference compound] (H-[Nlys][Nspe][Nspe][Nlys][Nspe][Nspe][Nlys][Nspe][Nspe][Nlys][Nspe][Nspe]-NH2) | 25 (≈ 45.5 µg/mL) | < 0.8 | 0.8 (≈ 1.46 µg/mL) | 6.3 (≈ 11.5 µg/mL) | 6.3 (≈ 11.5 µg/mL) | 8.3 | 22.9 | 1.6 | 1.6 (≈ 2.91 µg/mL) | 6.3 | 6.3 (≈ 11.5 µg/mL) | almost no peptoid decomposition occurred |  |  |  |  |  |  | CC50 at 24 h [1]: 7.3 µM; CC50 at 24 h ([1]; LC50 MRC-5, 24 hours incubation, concentration that causes 50% cell lethality): 8.1 µM; HC10 [7, 13]: 15.9 µM; HC50 [7, 13]: 49.0 µM; Hmax (100 μM) [7, 13]: 72.1 ± 2.1%; Hmax (100 μM) ([7]; Tables 11-13, hemolysis rate at maximum peptoid concentration): 112.3 ± 0.7%; HD10 ([7]; first value of HD10/HD50 cell, hemolysis, in µM): 22.9; Hmax (100 μM) ([7]; hemolysis at 100 μM): 75.8; HD50 ([7]; second value of HD10/HD50 cell, hemolysis, in µM): 79.0; MIC S. aureus ATCC 25923 ([8]; gram-positive bacteria, S. aureus ATCC25923 strain): 1.6 µM (≈ 2.91 µg/mL); MIC E. coli ATCC25922 ([9]; gram-negative bacteria, E. coli ATCC25922 strain): 3.1 µM (≈ 5.64 µg/mL)
2 | C[C@@H](c1ccccc1)N(CC(=O)N(CCCCN)CC(=O)N(CC(=O)N(CC(=O)N(CCCCN)CC(=O)N(CC(=O)N(CC(=O)N(CCCCN)CC(=O)N(CCc1c[nH]c2ccccc12)CC(=O)N(CCc1c[nH]c2ccccc12)CC(N)=O)[C@@H](C)c1ccccc1)[C@@H](C)c1ccccc1)[C@@H](C)c1ccccc1)[C@@H](C)c1ccccc1)C(=O)CN(C(=O)CNCCCCN)[C@@H](C)c1ccccc1 [Peptoid 11, H-NLys-Nspe-Nspe-NLys-Nspe-Nspe-NLys-Nspe-Nspe-NLys-NhTrp-NhTrp-NH2] (H-[Nlys][Nspe][Nspe][Nlys][Nspe][Nspe][Nlys][Nspe][Nspe][Nlys][Gly(N(CH2)2(3-indolyl))][Gly(N(CH2)2(3-indolyl))]-NH2) |  | < 0.8 | < 0.8 | 12.5 (≈ 23.7 µg/mL) | 6.3 (≈ 12 µg/mL) |  |  | 1.6 | 1.6 (≈ 3.04 µg/mL) | 3.1 | 6.3 (≈ 12 µg/mL) | almost no peptoid decomposition occurred | 6.9 |  |  |  |  |  | 
3 | C[C@@H](c1ccccc1)N(CC(N)=O)C(=O)CN(C(=O)CN(CCCCN)C(=O)CN(C(=O)CN(C(=O)CN(CCCCN)C(=O)CN(C(=O)CN(C(=O)CN(CCCCN)C(=O)CN(CCc1c[nH]c2ccccc12)C(=O)CN(CCc1c[nH]c2ccccc12)C(=O)CNCCCCN)[C@@H](C)c1ccccc1)[C@@H](C)c1ccccc1)[C@@H](C)c1ccccc1)[C@@H](C)c1ccccc1)[C@@H](C)c1ccccc1 [Peptoid 14, H-NLys-NhTrp-NhTrp-NLys-Nspe-Nspe-NLys-Nspe-Nspe-NLys-Nspe-Nspe-NH2] |  | < 0.8 | 1.6 (≈ 3.04 µg/mL) | 6.3 (≈ 12 µg/mL) | 3.1 (≈ 5.88 µg/mL) | 23.6 | 43.4 | 1.6 | <0.8 | 3.1 | 3.1 (≈ 5.88 µg/mL) | almost no peptoid decomposition occurred | 9.7 | 12.5 | 21.1 |  |  |  | 
4 | C[C@@H](c1ccccc1)N(CC(=O)N(CCCCN)CC(=O)N(CCc1c[nH]c2ccccc12)CC(=O)N(CCc1c[nH]c2ccccc12)CC(N)=O)C(=O)CN(CCCCN)C(=O)CN(CCCCN)C(=O)CN(C(=O)CN(C(=O)CN(CCCCN)C(=O)CN(C(=O)CN(C(=O)CNCCCCN)[C@@H](C)c1ccccc1)[C@@H](C)c1ccccc1)[C@@H](C)c1ccccc1)[C@@H](C)c1ccccc1 [Peptoid 29, H-NLys-Nspe-Nspe-NLys-Nspe-Nspe-NLys-NLys-Nspe-NLys-NhTrp-NhTrp-NH2] (H-[Nlys][Nspe][Nspe][Nlys][Nspe][Nspe][Nlys][Nlys][Nspe][Nlys][Gly(N(CH2)2(3-indolyl))][Gly(N(CH2)2(3-indolyl))]-NH2) | 50 (≈ 93.2 µg/mL) | 1.6 (≈ 2.98 µg/mL) | 3.1 (≈ 5.78 µg/mL) | 6.3 (≈ 11.7 µg/mL) | 3.1 (≈ 5.78 µg/mL) |  |  | 12.5 | 6.3 (≈ 11.7 µg/mL) | 6.3 | 6.3 (≈ 11.7 µg/mL) | almost no peptoid decomposition occurred |  |  |  | 20 | 20 | 18.8 | 
5 | C[C@@H](c1ccccc1)N(CC(N)=O)C(=O)CN(CCCCN)C(=O)CN(CCCCN)C(=O)CN(C(=O)CN(C(=O)CN(CCCCN)C(=O)CN(C(=O)CN(C(=O)CN(CCCCN)C(=O)CN(CCc1c[nH]c2ccccc12)C(=O)CN(CCc1c[nH]c2ccccc12)C(=O)CNCCCCN)[C@@H](C)c1ccccc1)[C@@H](C)c1ccccc1)[C@@H](C)c1ccccc1)[C@@H](C)c1ccccc1 [Peptoid 32, H-NLys-NhTrp-NhTrp-NLys-Nspe-Nspe-NLys-Nspe-Nspe-NLys-NLys-Nspe-NH2] | 25 (≈ 46.6 µg/mL) | 3.1 (≈ 5.78 µg/mL) | 6.3 (≈ 11.7 µg/mL) | 6.3 (≈ 11.7 µg/mL) | 3.1 (≈ 5.78 µg/mL) |  |  |  | 3.1 (≈ 5.78 µg/mL) | 6.3 | 6.3 (≈ 11.7 µg/mL) | almost no peptoid decomposition occurred | 14.5 |  |  | 20 | 20 | 17.1 | MIC S. aureus ATCC 25923 ([8]; ATCC 25923): 3.1 µM (≈ 5.78 µg/mL)
6 | C[C@@H](c1ccccc1)N(CC(N)=O)C(=O)CN(CCCCN)C(=O)CN(CCCCN)C(=O)CN(C(=O)CN(C(=O)CN(CCCCN)C(=O)CN(C(=O)CN(C(=O)CN(CCCCN)C(=O)CN(CCc1c[nH]c2ccccc12)C(=O)CN(CCc1c[nH]c2ccccc12)C(=O)CNCCCCN)[C@@H](C)c1ccccc1)[C@@H](C)c1ccccc1)[C@@H](C)c1ccccc1)[C@@H](C)c1ccccc1 [Peptoid 32-2] |  |  |  |  |  |  |  | 6.3 |  | 6.3 |  |  |  | 83.0 | > 100 |  |  |  | LC50 / animal cell toxicity, MRC-5 (in words) [11]: LC50 values of the peptoids increase; LC50 / animal cell toxicity, HaCaT (in words) [12]: LC50 values of the peptoids increase; Hmax (100 μM) [7]: 13.8 ± 1.1%
